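All cell lines were grown in 96-well plates and treated with compound for 48 hours. GI50: concentration for 50% inhibition of growth. TGI denotes the concentration required for complete inhibition of growth.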
Key:
Test in all cases: NCI anticancer screen, dose series, 48 h
786-0 renal = tested on: 786-0 renal
A498 renal = tested on: A498 renal
A549 NSCLC = tested on: A549 NSCLC
ACHN renal = tested on: ACHN renal
BT-549 breast = tested on: BT-549 breast
CAKI-1 renal = tested on: CAKI-1 renal
CCRF-CEM leukemia = tested on: CCRF-CEM leukemia
COLO 205 colon = tested on: COLO 205 colon
DU-145 prostate = tested on: DU-145 prostate
EKVX NSCLC = tested on: EKVX NSCLC
HCC-2998 colon = tested on: HCC-2998 colon
HCT-116 colon = tested on: HCT-116 colon
HCT-15 colon = tested on: HCT-15 colon
HOP-62 NSCLC = tested on: HOP-62 NSCLC
HOP-92 NSCLC = tested on: HOP-92 NSCLC
HT29 colon = tested on: HT29 colon
IGROV1 ovarian = tested on: IGROV1 ovarian
K-562 leukemia = tested on: K-562 leukemia
KM12 colon = tested on: KM12 colon
LOX IMVI melanoma = tested on: LOX IMVI melanoma
M14 melanoma = tested on: M14 melanoma
MALME-3M melanoma = tested on: MALME-3M melanoma
MCF7 breast = tested on: MCF7 breast
MDA-MB-231 breast = tested on: MDA-MB-231 breast
MDA-MB-435 = tested on: MDA-MB-435
MOLT-4 leukemia = tested on: MOLT-4 leukemia
NCI-H226 lung = tested on: NCI-H226 lung
NCI-H23 lung = tested on: NCI-H23 lung

## CCCCCc1ccc(S(=O)(=O)Nc2cc(-c3csc(NC(=O)CN4CCN(CCO)CC4)n3)ccc2OC)cc1
786-0 renal
  GI50: 1850 nM
  TGI: 3.39 µM
A498 renal
  GI50: 1580 nM
  TGI: 2950 nM
A549 NSCLC
  GI50: 1890 nM
  TGI: 4.18 µM
ACHN renal
  GI50: 1810 nM
  TGI: 3.28 µM
BT-549 breast
  GI50: 1550 nM
  TGI: 3.1 µM
CAKI-1 renal
  GI50: 1620 nM
  TGI: 3.32 µM
CCRF-CEM leukemia
  GI50: 2540 nM
  TGI: 7.83 µM
COLO 205 colon
  GI50: 1610 nM
  TGI: 3.11 µM
DU-145 prostate
  GI50: 1890 nM
  TGI: 3.6 µM
EKVX NSCLC
  GI50: 1690 nM
  TGI: 3.59 µM
HCC-2998 colon
  GI50: 1930 nM
  TGI: 3.8 µM
HCT-116 colon
  GI50: 1720 nM
  TGI: 3.24 µM
HCT-15 colon
  GI50: 1860 nM
  TGI: 3.65 µM
HOP-62 NSCLC
  GI50: 1660 nM
  TGI: 3.18 µM
HOP-92 NSCLC
  GI50: 1500 nM
  TGI: 3 µM
HT29 colon
  GI50: 1890 nM
  TGI: 3.75 µM
IGROV1 ovarian
  GI50: 1920 nM
  TGI: 4.01 µM
K-562 leukemia
  GI50: 2690 nM
  TGI: > 100 µM
KM12 colon
  GI50: 1920 nM
  TGI: 3.7 µM
LOX IMVI melanoma
  GI50: 1730 nM
  TGI: 3.24 µM
M14 melanoma
  GI50: 1710 nM
  TGI: 3.24 µM
MALME-3M melanoma
  GI50: 1640 nM
  TGI: 3.15 µM
MCF7 breast
  GI50: 1620 nM
  TGI: 3.2 µM
MDA-MB-231 breast
  GI50: 1940 nM
  TGI: 3.83 µM
MDA-MB-435
  GI50: 1700 nM
  TGI: 3.21 µM
MOLT-4 leukemia
  GI50: 3.17 µM
  TGI: 10.6 µM
NCI-H226 lung
  GI50: 1900 nM
  TGI: 3.88 µM
NCI-H23 lung
  GI50: 1930 nM

From PubChem BioAssay (NCI)
